The values below come from patent publication US4760148A, “5-aralkyl substituted 2H-benzotriazoles and stabilized compositions” (Ciba-Geigy Corporation, priority 1985, dated 1988).

The nature of data set [1]: Solubility of benzotriazole stabilizers. Particulars: 25° C. Type of data set: physicochemical. An excerpt:
The benzotriazole stabilizers are classically materials with relatively low solubility in common organic solvents. This is particularly the case where the benzotriazole is substituted in the 2-phenyl ring with aralkyl groups intended to decrease stabilizer volatility during processing and use.

Data set [2] in a line: Stabilizer loss on milling into polycarbonate resin. Particulars: milling at 400° F. (240° C.), 15 minutes, spectrophotometric. Here is the method:
Samples of light stabilizers are incorporated into polycarbonate resin by milling at 400° F. ([…]) for a 15 minute period. […] At the end of the milling period the percent stabilizer loss is determined spectrophotometrically.

A short description of data set [3]: Absorbance at 340nm (extinction coefficients). The format is physicochemical. Particulars: for Specific Extinction Coefficient a: equal weight basis. An excerpt:
The compounds of this invention show unanticipated enhancement of absorbance at 340nm as can be seem from a comparison of molar extinction coefficients E compared to state of the art compund F which lacks an aralkyl-substituent in the 5-position. In many cases the enhanced absorbance is also seen when products are compared i.e. in terms of Specific Extinction Coefficients a on an equal weight rather than molar basis.
Molar Extinction Coefficient E = a × molecular weight

The conditions of data set [4]: in words, prior art patents; cited from earlier work.
For data set [5] the following is noted: in words, prior art patents; cited from earlier work. This is another data set of the same source.
A short description of data set [6]: Thermal gravimetric analysis (resistance to loss of benzotriazole stabilizers). As to conditions: for Time (minutes) to 50% Weight Loss of Stabilizer: isothermal at 280° C.; for Time (minutes) to 50% Weight Loss of Stabilizer / Temperature °C. to 10% Weight Loss of Stabilizer / Temperature °C. to 50% Weight Loss of Stabilizer: 100 ml nitrogen/minute; for Temperature °C. to 10% Weight Loss of Stabilizer / Temperature °C. to 50% Weight Loss of Stabilizer: scanning at 10°(C.) per minute; for resistance to thermogravimetric loss: in words, compared with prior art benzotriazole F.
Protocol: A number of 2-aryl-2H-benzotriazole light stabilizers are subjected to thermal gravimetric analysis with a flow rate of 100 ml nitrogen/minute both isothermally at 280° C. to indicate the time in minutes to reach 50% weight loss of the stabilizer as well as in a scanning mode at a heating rate of 10° (C.) per minute to ascertain the temperature at which 10% and 50% weight loss of stabilizer are observed.

Data set [7] can be described thus: Solubility of crystalline modification forms. Type of data set: physicochemical. Particulars: organic solvents including xylene and methyl amyl ketone.

With `CC(C)(c1ccccc1)c1cc(-n2nc3ccccc3n2)c(O)c(C(C)(C)c2ccccc2)c1` [Compound F, 2-[2-hydroxy-3,5-di-(alpha,alpha-dimethylbenzyl)phenyl]-2 H-benzotriazole], in data set [1], the “Solubility in Butyl Cellosolve Acetate” value is reported as 14 grams per 100 grams solvent, the “Solubility in Heptane” value is 1.5 grams per 100 grams solvent, the “Solubility in Methyl Amyl Ketone” value is recorded as 6 grams per 100 grams solvent and the “Solubility in Xylene” value is listed as 16 grams per 100 grams solvent. In data set [2], the “% loss (by weight) of stabilizer” value is reported as under 3%. Further, in data set [3], the Molar Extinction Coefficient E amounted to 15100 L/mol/cm and the Specific Extinction Coefficient a is 34 L/g/cm. In addition, the “resistance to loss by volatilization” value in data set [4] is “superior resistance to loss from stabilized compositions during high temperature processing”. The “solubility in substrates and processing solvents” value in data set [5] was “relatively low solubility in some substrates and processing solvents”. In data set [6], the “Time (minutes) to 50% Weight Loss of Stabilizer” value came out at 24 min, the “Temperature °C. to 10% Weight Loss of Stabilizer” value is 300 °C and the “Temperature °C. to 50% Weight Loss of Stabilizer” value was found to be 340 °C.
Consider `CCC(C)(C)c1cc(-n2nc3ccccc3n2)c(O)c(C(C)(C)CC)c1` [Compound B, 2(2-hydroxy-3,5-di-tert-amylphenyl)-2H--benzotriazole], for which, in data set [1], the “Solubility in Butyl Cellosolve Acetate” value is 19 grams per 100 grams solvent, the “Solubility in Heptane” value is 23 grams per 100 grams solvent, the “Solubility in Methyl Amyl Ketone” value is 34 grams per 100 grams solvent and the “Solubility in Xylene” value is 70 grams per 100 grams solvent. In addition, in data set [6], the “Time (minutes) to 50% Weight Loss of Stabilizer” value was 0.9 min, the “Temperature °C. to 10% Weight Loss of Stabilizer” value turned out to be 200 °C and the “Temperature °C. to 50% Weight Loss of Stabilizer” value is 233 °C.
With `CC(C)(C)CC(C)(C)c1cc(-n2nc3ccccc3n2)c(O)c(C(C)(C)c2ccccc2)c1` [Compound G, 2-[2-hydroxy-3-(alpha,alpha-dimethylbenzyl)-5-tert-octylphenyl]-2H-benzotriazole], in data set [1], the “Solubility in Butyl Cellosolve Acetate” value is on record as 19 grams per 100 grams solvent, the “Solubility in Heptane” value was 9.7 grams per 100 grams solvent, the “Solubility in Methyl Amyl Ketone” value was 33 grams per 100 grams solvent and the “Solubility in Xylene” value is reported as 82 grams per 100 grams solvent. In data set [6], the “Time (minutes) to 50% Weight Loss of Stabilizer” value amounted to 7.4 min, the “Temperature °C. to 10% Weight Loss of Stabilizer” value stood at 267 °C and the “Temperature °C. to 50% Weight Loss of Stabilizer” value turned out to be 307 °C.
With `CC(C)(C)c1cc(-n2nc3ccc(C(C)(C)c4ccccc4)cc3n2)c(O)c(C(C)(C)C)c1` [Example 7, 5-alpha,alpha-Dimethylbenzyl-2-(2-hydroxy-3,5-di-tert-butylphenyl)-2H-benzotriazole], in data set [1], the “Solubility in Butyl Cellosolve Acetate” value is reported as 61 grams per 100 grams solvent, the “Solubility in Heptane” value is recorded as 97 grams per 100 grams solvent, the “Solubility in Methyl Amyl Ketone” value is given as 128 grams per 100 grams solvent and the “Solubility in Xylene” value is reported as 197 grams per 100 grams solvent. Also, the “% loss (by weight) of stabilizer” value in data set [2] is under 3%. Further, in data set [3], the Molar Extinction Coefficient E was 19000 L/mol/cm and the Specific Extinction Coefficient a stood at 43 L/g/cm. Also, in data set [6], the “resistance to thermogravimetric loss” value is on record as “similar”, the “Time (minutes) to 50% Weight Loss of Stabilizer” value stood at 19 min, the “Temperature °C. to 10% Weight Loss of Stabilizer” value is 295 °C and the “Temperature °C. to 50% Weight Loss of Stabilizer” value stood at 338 °C.
As to `CC(C)(C)CC(C)(C)c1ccc(O)c(-n2nc3ccccc3n2)c1` [Stabilizer D, 2-(2-hydroxy-5-tert-octylphenyl)-2H-benzotriazole], in data set [2], the “% loss (by weight) of stabilizer” value was determined as 40%. In addition, the “compatibility / performance in substrates” value in data set [5] was “superior compatibility and performance in polyethylene”. In data set [6], the “Time (minutes) to 50% Weight Loss of Stabilizer” value came out at 1.9 min, the “Temperature °C. to 10% Weight Loss of Stabilizer” value was determined as 225 °C and the “Temperature °C. to 50% Weight Loss of Stabilizer” value was found to be 260 °C.
`CC(C)(C)CC(C)(C)c1cc(-n2nc3ccccc3n2)c(O)c(C(C)(C)CC(C)(C)C)c1` [2-(2-hydroxy-3,5-di-tert-octylphenyl)-2H-benzotriazole]: the “resistance to loss by volatilization” value in data set [4] was “did not have outstanding resistance to loss by volatilization”. For the same compound, in data set [5], the “solubility in substrates and processing solvents” value was “enhanced solubility in processing solvents and substrates”.
Consider `CCC(C)(C)c1cc(-n2nc3ccc(C(C)(C)c4ccccc4)cc3n2)c(O)c(C(C)(C)CC)c1` [Example 23], for which, in data set [1], the “Solubility in Butyl Cellosolve Acetate” value is listed as > 100 grams per 100 grams solvent, the “Solubility in Heptane” value was > 100 grams per 100 grams solvent, the “Solubility in Methyl Amyl Ketone” value was > 100 grams per 100 grams solvent and the “Solubility in Xylene” value is given as > 100 grams per 100 grams solvent. In data set [3], this compound registered a Molar Extinction Coefficient E of 19100 L/mol/cm and a Specific Extinction Coefficient a of 41 L/g/cm. In addition, in data set [6], the “Time (minutes) to 50% Weight Loss of Stabilizer” value was determined as 33 min, the “Temperature °C. to 10% Weight Loss of Stabilizer” value was 285 °C and the “Temperature °C. to 50% Weight Loss of Stabilizer” value is 325 °C.
For `CC(C)(c1ccccc1)c1cc(-n2nc3ccc(C(C)(C)c4ccccc4)cc3n2)c(O)c(C(C)(C)c2ccccc2)c1` [Example 21, 5-alpha,alpha-Dimethylbenzyl-2-[2-hydroxy-3,5-di (alpha, alpha-dimethylbenzyl)phenyl]-2H-benzotriazole], the “solubility of crystalline form melting at 114°-116° C. versus the other crystalline form” value in data set [7] is given as “far greater solubility in many organic solvents”. In addition, in data set [2], the “% loss (by weight) of stabilizer” value is on record as under 3%. In data set [3], this compound gave a Molar Extinction Coefficient E of 19500 L/mol/cm and a Specific Extinction Coefficient a of 28 L/g/cm. Also, in data set [6], the “resistance to thermogravimetric loss” value is reported as “very much more resistant to thermogravimetric loss”, the “Time (minutes) to 50% Weight Loss of Stabilizer” value worked out at 2040 min, the “Temperature °C. to 10% Weight Loss of Stabilizer” value was determined as 365 °C and the “Temperature °C. to 50% Weight Loss of Stabilizer” value was determined as 412 °C.
Turning to `CC(C)(c1ccccc1)c1cc(-n2nc3ccc(Cc4ccccc4)cc3n2)c(O)c(C(C)(C)c2ccccc2)c1` [Example 26, 5-Benzyl-2-[2-hydroxy-3,5-di-(alpha,alpha-dimethylbenzyl)phenyl]-2H-benzotriazole], in data set [3], the Molar Extinction Coefficient E amounted to 18500 L/mol/cm and the Specific Extinction Coefficient a stood at 35 L/g/cm. In data set [6], the “resistance to thermogravimetric loss” value is on record as “very much more resistant to thermogravimetric loss”, the “Time (minutes) to 50% Weight Loss of Stabilizer” value was found to be 3780 min, the “Temperature °C. to 10% Weight Loss of Stabilizer” value came to 360 °C and the “Temperature °C. to 50% Weight Loss of Stabilizer” value turned out to be 405 °C.
Turning to `Cc1ccc(O)c(-n2nc3ccccc3n2)c1` [Stabilizer A, 2(2-hydroxy-5-methylphenyl)-2H--benzotriazole], in data set [6], the “Time (minutes) to 50% Weight Loss of Stabilizer” value stood at 0.75 min, the “Temperature °C. to 10% Weight Loss of Stabilizer” value turned out to be 182 °C and the “Temperature °C. to 50% Weight Loss of Stabilizer” value amounted to 215 °C.
In data set [3], `CC(C)(C)CC(C)(C)c1cc(-n2nc3ccc(C(C)(C)c4ccccc4)cc3n2)c(O)c(C(C)(C)c2ccccc2)c1` [Example 22, 5-alpha,alpha-Dimethylbenzyl-2-(2-hydroxy-3-alpha,alpha-dimethylbenzyl-5-tert-octylphenyl)-2H-benzotriazole] registered a Molar Extinction Coefficient E of 18500 L/mol/cm and a Specific Extinction Coefficient a of 33 L/g/cm. In data set [6], the “Time (minutes) to 50% Weight Loss of Stabilizer” value stood at 840 min, the “Temperature °C. to 10% Weight Loss of Stabilizer” value was 340 °C and the “Temperature °C. to 50% Weight Loss of Stabilizer” value amounted to 387 °C.
Turning to `CC(C)(C)CC(C)(C)c1cc(-n2nc3ccc(C(C)(C)c4ccccc4)cc3n2)c(O)c(C(C)(C)CC(C)(C)C)c1` [Example 24, 5-alpha,alpha-Dimethylbenzyl-2-(2-hydroxy-3,5-di-tert-octylphenyl)-2H-benzotriazole], in data set [3], the Molar Extinction Coefficient E was 17400 L/mol/cm and the Specific Extinction Coefficient a came to 31 L/g/cm. In addition, in data set [6], the “Time (minutes) to 50% Weight Loss of Stabilizer” value was found to be 40 min, the “Temperature °C. to 10% Weight Loss of Stabilizer” value was found to be 308 °C and the “Temperature °C. to 50% Weight Loss of Stabilizer” value was found to be 348 °C.
In the case of `CCC(C)c1cc(-n2nc3ccccc3n2)c(O)c(C(C)(C)C)c1` (stereo not shown) [Stabilizer C, 2(2-hydroxy-3-tert-butyl-5-sec-butylphenyl)-2H--benzotriazole], in data set [6], the “Time (minutes) to 50% Weight Loss of Stabilizer” value stood at 1.0 min, the “Temperature °C. to 10% Weight Loss of Stabilizer” value was 210 °C and the “Temperature °C. to 50% Weight Loss of Stabilizer” value is 247 °C.
Regarding `Cc1cc(C(C)c2ccccc2)c(O)c(-n2nc3ccccc3n2)c1` (stereo not shown) [Stabilizer E, 2-[2-hydroxy-3-(1-phenylethyl)-5-methylphenyl]-2H-benzotriazole], in data set [4], the “resistance to loss by volatilization” value was “better resistance to loss by volatilization during processing”. The “compatibility / performance in substrates” value in data set [5] is recorded as “better compatibility”. For the same compound, in data set [6], the “Time (minutes) to 50% Weight Loss of Stabilizer” value came to 3.0 min, the “Temperature °C. to 10% Weight Loss of Stabilizer” value was found to be 250 °C and the “Temperature °C. to 50% Weight Loss of Stabilizer” value came to 290 °C.
